The results in this text go back to US10925858B2, “S-nitrosoglutathione (GSNO) and GSNO reductase inhibitors for use in therapy” (MUSC FOUNDATION FOR RESEARCH DEVELOPMENT, priority 2017, dated 2021).

The subject of this assay is tight junction proteins (ZO-1, Occludin, Claudin-5). Kind of assay: Western blotting, protein expression of tight junction proteins in isolated microvessels of diabetic mice. The format is in vivo. The procedure:
Male laca mice weighing between 28-32 g were procured from the Central Animal House, Panjab University, Chandigarh. The animals were acclimatized and were fed with standard pellet diet and water ad libitum. The experimental protocols were approved by the Institutional Ethics Committee and were conducted according to Indian National Science Academy (INSA) guidelines for the use and care of experimental animals. The animals were divided into four groups: (i) Control animals received phosphate buffered saline (PBS) throughout the study; (ii) Control+GSNO animals were administered with GSNO 100 μg/kg body weight orally, dissolved in PBS after every 24 h for 8 weeks; (iii) Diabetic animals were injected with STZ at a dose of 40 mg/kg body weight intraperitoneally for 5 days dissolved in 0.1 mol/L citrate buffer, pH 4.5 and Diabetic+GSNO mice were administered GSNO 100 μg/kg body weight orally dissolved in PBS after every 24 h for 8 weeks after the induction of diabetes. Animals were assessed weekly for development of diabetic encephalopathy in terms of memory deficits. All experimental procedures were done on mice at the end of study. The microvessels were isolated by the method described by Brooks et al., (2005). Brain tissue was homogenized in microisolation buffer (103 mM NaCl, 4.7 mM KCl, 2.5 mM CaCb, 1.2 mM KH2PO4, 1.2 mM MgSO4, 15 mM HEPES, 2.5 mM NaHCO3, 10 mM D-glucose, 1 mM sodium pyruvate and 10 g/L dextran (64,000 mol wt), pH 7.4) and equal amount of 26% (w/v) dextran was added. The sample was then centrifuged at 5600 g for 10 min and pellets obtained were resuspended in microisolation buffer. Then the suspension was filtered through 70 μm filter (BD Biosciences, Gurgaon, India). The filtered homogenates were then centrifuged at 3000 g for 10 min at 4° C. and the pellet was obtained. Protein expression of tight junction proteins and cell adhesion molecules i.e. ZO-1, occludin, Claudin-5, ICAM-1 and VCAM-1 was studied in microvessels obtained from cortex and hippocampus regions of the brain (Towbin et al., 1992). […]

Setting [1] is: microvessels of cortex and hippocampus, diabetic mice + GSNO 100 μg/kg oral 8 weeks.

`N[C@@H](CCC(=O)N[C@@H](CSN=O)C(=O)NCC(=O)O)C(=O)O` [GSNO, S-nitrosoglutathione]: the “protein expression of claudin-5” value (GSNO treated diabetic animals) is on record as “no significant change”. Further, under setting [1], the “increase of protein expression of ZO-1” value was around 70% and the “increase of protein expression of occludin” value is on record as around 60%.
